Consider four compounds from patent publication US20090099169A1, “Benzofuran Compounds As EP1 Receptor Antagonists” (GLAXO GROUP LIMITED, priority 2006, published 2009).

Experiment [1] relates to gastric lesions induced by taurocholate acid, aspirin or indomethacin. The conditions noted are these: rats, Ogletree et al 1992; cited from earlier work.
Experiment [2] concerns the target T1, human EP1 receptor (Homo sapiens, UniProt P34995).
T1 sequence (P34995 1-402): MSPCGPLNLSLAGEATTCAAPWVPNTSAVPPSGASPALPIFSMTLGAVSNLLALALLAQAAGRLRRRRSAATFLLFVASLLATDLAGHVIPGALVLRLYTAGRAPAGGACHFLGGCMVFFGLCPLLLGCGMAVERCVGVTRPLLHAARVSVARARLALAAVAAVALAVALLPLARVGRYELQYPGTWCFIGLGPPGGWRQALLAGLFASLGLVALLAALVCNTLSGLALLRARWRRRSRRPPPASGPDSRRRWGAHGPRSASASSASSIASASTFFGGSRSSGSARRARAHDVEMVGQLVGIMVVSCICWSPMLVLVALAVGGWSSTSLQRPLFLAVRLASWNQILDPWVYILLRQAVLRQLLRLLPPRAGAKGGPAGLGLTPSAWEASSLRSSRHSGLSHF
The experiment in a line: Binding assay for the human prostanoid EP1 receptor (radioligand competition). On the set-up: expressed in transfected cells; host or cells: CHO-K1 (membranes). The conditions noted are these: CHO-K1 membranes; [3H]-PGE2 for Examples 1-17, 19, 33, 34, 60 and 61, 3-{2-[5-Bromo-2-(2,4-difluorobenzyloxy)-phenyl]-5-methyl-pyrrol-1-yl}-6-[3H3-methoxy]methoxy-benzoic acid for the remaining; averages of a number of experiments; read-out: pIC50 value (binding assay for the human prostanoid EP1 receptor) (converted). The essentials: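 Membranes from CHO-K1 cells stably expressing human EP1, in pH 6 MES buffer with 10 mM MgCl2. Competition with [3H]-PGE2 (3 nM final) for 30 min at 30 °C, or alternatively with a tritiated benzoic-acid ligand (0.2 nM final) for 45 min at 37 °C; filtration and scintillation counting, IC50 by non-linear fitting.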
(In general: Displacement assays read how much labelled ligand stays bound in the presence of the test substance.)

In experiment [3] the target is T2, human TP receptor (Homo sapiens, UniProt P21731).
T2 construct: expressed in transfected cells; host or cells: CHO-K1
T2 sequence (P21731 1-343): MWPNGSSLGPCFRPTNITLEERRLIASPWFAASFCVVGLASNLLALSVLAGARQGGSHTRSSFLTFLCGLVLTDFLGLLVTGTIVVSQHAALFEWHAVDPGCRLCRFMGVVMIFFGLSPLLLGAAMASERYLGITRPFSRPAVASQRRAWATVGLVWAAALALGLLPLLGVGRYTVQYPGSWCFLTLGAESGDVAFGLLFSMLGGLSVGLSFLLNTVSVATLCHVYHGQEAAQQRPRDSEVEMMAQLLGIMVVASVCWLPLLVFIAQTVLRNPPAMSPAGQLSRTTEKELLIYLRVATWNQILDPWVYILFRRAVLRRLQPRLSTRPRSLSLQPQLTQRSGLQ
The experiment in a line: human TP calcium mobilisation assay. The experiment is classed as cell-based. The conditions noted are these: CHO-K1 cells, antagonism of U46619; averages of a number of experiments; read-out: functional pKi value (human TP calcium mobilisation assay) (converted). How it is done:
To determine if a compound has agonist or antagonist activity at the TP receptor a functional calcium mobilisation assay may be performed. Briefly, the antagonist properties of compounds are assessed by their ability to inhibit the mobilisation of intracellular calcium ([Ca^2+]i) in response to activation of TP receptors by the stable TXA2 mimetic U46619 (9,11-dideoxy-11α,9α-epoxy-methanoprostaglandin F2α; commercially available from e.g Sigma-Aldrich). Increasing concentrations of antagonist reduce the amount of calcium that a given concentration of U46619 can mobilise. The net effect is to displace the U46619 concentration-effect curve. The amount of calcium produced is assessed using a calcium-sensitive fluorescent dye such as Fluo-4, AM and a suitable instrument such as a Fluorimetric Imaging Plate Reader (FLIPR). Increasing amounts of [Ca^2+]i produced by receptor activation increase the amount of fluorescence produced by the dye and give rise to an increasing signal. The signal may be detected using the FLIPR instrument and the data generated may be analysed with suitable curve-fitting software. The agonist activity of the compounds are determined by their ability to cause an increase in intracellular mobilisation in the absence of U46619.
The human TP calcium mobilisation assay utilises Chinese hamster ovary-K1 (CHO-K1) cells into which a stable (pCIN; BioTechniques 20 (1996): 102-110) vector containing TP cDNA has previously been transfected. Cells are cultured in suitable flasks containing culture medium such as DMEM:F-12 supplemented with 10% v/v foetal calf serum, 2 mM L-glutamine, 0.25 mg/ml geneticin, 100 μM flurbiprofen and 10 μg/ml puromycin.
(§1) For assay, cells are harvested using a proprietary reagent that dislodges cells such as Versene. Cells are re-suspended in a suitable quantity of fresh culture media for introduction into a 96-well plate. Following incubation for 24 hours at 37° C. the culture media is replaced with a medium containing Fluo-4 and the detergent pluronic acid, and a further incubation takes place. Concentrations of compounds are then added to the plate in order to construct concentration-effect curves. This may be performed on the FLIPR in order to assess the agonist properties of the compounds. Concentrations of U46619 are then added to the plate in order to assess the antagonist properties of the compounds.
The data so generated may be analysed by means of a computerised curve-fitting routine. The concentration of compound that elicits a half-maximal inhibition of the calcium mobilisation induced by U46619 (pIC50) may then be estimated, and the percentage activation caused by the compounds directly can be used to determine if there is any agonism present.
On the technique in general: Calcium flux is commonly read through the fluorescence of an indicator in the cells.

For experiment [4], the target named is T3, human EP3 receptor (Homo sapiens, UniProt P43115).
T3 construct: expressed in transfected cells; host or cells: CHO-K1
T3 sequence (P43115 1-390): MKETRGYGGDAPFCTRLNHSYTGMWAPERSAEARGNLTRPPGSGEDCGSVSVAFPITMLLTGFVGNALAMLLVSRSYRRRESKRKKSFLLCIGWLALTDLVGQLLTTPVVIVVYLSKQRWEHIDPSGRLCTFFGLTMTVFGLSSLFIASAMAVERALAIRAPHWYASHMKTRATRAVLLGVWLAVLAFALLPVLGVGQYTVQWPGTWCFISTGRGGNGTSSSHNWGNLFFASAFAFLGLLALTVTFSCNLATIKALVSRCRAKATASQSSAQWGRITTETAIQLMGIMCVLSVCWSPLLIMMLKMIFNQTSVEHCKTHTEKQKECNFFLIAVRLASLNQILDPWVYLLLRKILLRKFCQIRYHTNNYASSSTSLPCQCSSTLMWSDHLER
The experiment in a line: human EP3 calcium mobilisation assay. It is filed as cell-based. The conditions noted are these: CHO-K1 cells, antagonism of PGE2; averages of a number of experiments; read-out: functional pKi value (human EP3 calcium mobilisation assay) (converted). Here is the method:
Briefly, the antagonist properties of compounds are assessed by their ability to inhibit the mobilisation of intracellular calcium ([Ca^2+]i) in response to activation of EP1 or EP3 receptors by the natural agonist hormone prostaglandin E2 (PGE2). Increasing concentrations of antagonist reduce the amount of calcium that a given concentration of PGE2 can mobilise. The net effect is to displace the PGE2 concentration-effect curve to higher concentrations of PGE2. The amount of calcium produced is assessed using a calcium-sensitive fluorescent dye such as Fluo-4, AM and a suitable instrument such as a Fluorimetric Imaging Plate Reader (FLIPR). Increasing amounts of [Ca^2+]i produced by receptor activation increase the amount of fluorescence produced by the dye and give rise to an increasing signal. The signal may be detected using the FLIPR instrument and the data generated may be analysed with suitable curve-fitting software.
The human EP1 or EP3 calcium mobilisation assay (hereafter referred to as ‘the calcium assay’) utilises Chinese hamster ovary-K1 (CHO-K1) cells into which a stable (PCIN; BioTechniques 20 (1996): 102-110) vector containing either EP1 or EP3 cDNA has previously been transfected. Cells are cultured in suitable flasks containing culture medium such as DMEM:F-12 supplemented with 10% v/v foetal calf serum, 2 mM L-glutamine, 0.25 mg/ml geneticin, 100 μM flurbiprofen and 10 μg/ml puromycin.
as §1, with “384-well” for “96-well”, “PGE2” for “U46619”
The data so generated may be analysed by means of a computerised curve-fitting routine. The concentration of compound that elicits a half-maximal inhibition of the calcium mobilisation induced by PGE2 (pIC50) may then be estimated.

Experiment [5] concerns rat model of chronic constriction injury. The conditions noted are these: Anesthesia and Analgesia 2001, 93, 1012-7; cited from earlier work.
For experiment [6], the system named is rodent model of post-operative pain. To be noted: Anesthesia and Analgesia 2001, 92, 233-238; cited from earlier work.

Where a name gives a salt, the structure may show the parent alone.

Consider `O=C(O)Cc1ccc(CCNS(=O)(=O)c2ccc(Cl)cc2)cc1` [BM 13505], for which the gastric lesions result in experiment [1] is given as “inhibit gastric lesions”.

For the compound `CC(C)c1cc2cc(Cl)cc(Cc3ccc(-c4nc5ccccc5[nH]4)o3)c2o1` [Example 2, 2-(5-{[5-Chloro-2-(1-methylethyl)-1-benzofuran-7-yl]methyl}-2-furanyl)-1H-benzimidazole Hydrochloride], the IC50 in experiment [2] was no more than 0.1 µM. Besides, the Ki in experiment [3] was greater than 3.16 µM.

Turning to `CC(C)c1cc2cc(Cl)cc(Cc3ccc(C(=O)Nc4c(F)cccc4F)o3)c2o1` [Example 8, 5-{[5-Chloro-2-(1-methylethyl)-1-benzofuran-7-yl]methyl}-N-(2,6-difluorophenyl)-2-furancarboxamide], the values for the Ki in experiment [4] and in experiment [3] were 0.501 to 10 µM and greater than 3.16 µM, respectively.

Take `Cc1cc(Cl)ccc1S(=O)(=O)NC[C@H]1C2CCC(CC2)[C@@H]1/C=C\CCCC(=O)O` [ONO-8711]: the hyperalgesia and allodynia entry in experiment [5] was “reduces hyperalgesia and allodynia”. The mechanical hyperalgesia result in experiment [6] was “inhibits mechanical hyperalgesia”.
